ChEMBL document CHEMBL4800726, “Data for DCP probe MSC-4381” (2021)

What was measured:
[1] = target: 5-hydroxytryptamine receptor 5A (Homo sapiens, UniProt P47898); conditions: Compound concentration 10.0 uM
[2] = target: 5-hydroxytryptamine receptor 2B (Homo sapiens) (UniProt P41595); conditions: Compound concentration 10.0 uM
[3] = target: Alpha-1D adrenergic receptor (Homo sapiens) (UniProt P25100); conditions: Compound concentration 10.0 uM
[4] = target: Histamine H1 receptor (Homo sapiens) (UniProt P35367); conditions: Compound concentration 10.0 uM
Rattus norvegicus = species: Rattus norvegicus; conditions: Compound concentration 10.0 uM
[5] = target: T1, Muscarinic acetylcholine receptor M1 (Homo sapiens) (UniProt P11229); conditions: Compound concentration 10.0 uM
T1 sequence (whole entry): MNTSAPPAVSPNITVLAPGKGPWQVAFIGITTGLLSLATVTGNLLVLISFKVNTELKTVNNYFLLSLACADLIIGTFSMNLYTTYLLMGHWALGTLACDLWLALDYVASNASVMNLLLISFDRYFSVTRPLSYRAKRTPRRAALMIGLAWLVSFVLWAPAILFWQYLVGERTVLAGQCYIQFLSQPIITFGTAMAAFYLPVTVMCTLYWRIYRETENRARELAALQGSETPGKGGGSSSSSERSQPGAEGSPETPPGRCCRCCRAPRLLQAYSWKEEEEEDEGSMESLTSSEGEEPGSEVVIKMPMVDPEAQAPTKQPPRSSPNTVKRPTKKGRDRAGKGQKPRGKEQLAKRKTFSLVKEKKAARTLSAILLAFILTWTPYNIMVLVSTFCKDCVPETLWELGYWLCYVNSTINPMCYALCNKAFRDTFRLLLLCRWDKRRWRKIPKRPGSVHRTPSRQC

[6] = target: Monocarboxylate transporter 2/3 (Homo sapiens, UniProt O60669+O95907); test: Lactate efflux inhibition assay (RT4); format: protein assay
[7] = target: Monocarboxylate transporter 4 (Homo sapiens, UniProt O15427); test: Lactate efflux inhibition assay (MDA-MB-231)
[8] = target: 5-hydroxytryptamine receptor 7 (Homo sapiens) (UniProt P34969); conditions: Compound concentration 10.0 uM
[9] = target: Alpha-2A adrenergic receptor (Homo sapiens) (UniProt P08913); conditions: Compound concentration 10.0 uM
[10] = target: Beta-1 adrenergic receptor (Homo sapiens) (UniProt P08588); conditions: Compound concentration 10.0 uM
[11] = target: 5-hydroxytryptamine receptor 6 (Homo sapiens, UniProt P50406); test: GPCRScan assay: inhibition of 5-HT6; parameters: radioligand conc. used [nm] 2.0 – 4.0, parental cells stable HEK
[12] = GPCRScan assay: inhibition of GABA/PBR; parameters: species or system Rattus norvegicus; radioligand conc. used [nm] 0.3 – 2.0, parental cells brain tissue
[13] = target: T2, Delta-type opioid receptor (Homo sapiens, UniProt P41143); conditions: Compound concentration 10.0 uM
[14] = target: Kappa-type opioid receptor (Homo sapiens) (UniProt P41145); conditions: Compound concentration 10.0 uM
[15] = target: D(4) dopamine receptor (Homo sapiens) (UniProt P21917); conditions: Compound concentration 10.0 uM
[16] = target: Muscarinic acetylcholine receptor M4 (Homo sapiens) (UniProt P08173); conditions: Compound concentration 10.0 uM
[17] = target: Melatonin receptor type 1A (Homo sapiens) (UniProt P48039); test: MT1 (ML1A) (h) Eurofins-Cerep binding assay; parameters: ligand concentration 0.01 nM; conditions: filed as agonist, Compound concentration 10.0 uM
[18] = target: GABA-A receptor; anion channel (Rattus norvegicus) (UniProt O09028+P15431+P18506+P18508+P19969+P20236+P23574+P23576+P28471+P28473+P30191+P62813+P63079+P63138+Q91ZM7+Q9ES14); test: Cl- channel (GABA-gated) Eurofins-Cerep binding assay; format: protein-complex assay; parameters: ligand concentration 3 nM; conditions: filed as antagonist, Compound concentration 10.0 uM
[19] = target: D(1A) dopamine receptor (Homo sapiens) (UniProt P21728); test: D1 (h) Eurofins-Cerep binding assay; parameters: ligand concentration 0.3 nM; conditions: filed as antagonist, Compound concentration 10.0 uM
[20] = target: Sodium-dependent dopamine transporter (Homo sapiens, UniProt Q01959); test: dopamine transporter (h) Eurofins-Cerep binding assay; parameters: ligand concentration 4 nM; conditions: filed as antagonist, Compound concentration 10.0 uM
[21] = target: T2, Delta-type opioid receptor; test: delta (DOP) (h) Eurofins-Cerep binding assay; parameters: ligand concentration 0.5 nM; conditions: filed as agonist, Compound concentration 10.0 uM
[22] = target: Cannabinoid receptor 1 (Homo sapiens) (UniProt P21554); test: CB1 (h) Eurofins-Cerep binding assay; parameters: ligand concentration 0.5 nM; conditions: filed as agonist, Compound concentration 10.0 uM
[23] = target: Vasoactive intestinal polypeptide receptor 1 (Homo sapiens) (UniProt P32241); test: VPAC1 (VIP1) (h) Eurofins-Cerep binding assay; parameters: ligand concentration 0.04 nM; conditions: filed as agonist, Compound concentration 10.0 uM
[24] = target: Somatostatin receptor (Mus musculus) (UniProt P30935+O08858+P30875+P30873+P49660); test: sst (non-selective) Eurofins-Cerep binding assay; format: protein assay; parameters: ligand concentration 0.05 nM; conditions: filed as agonist, Compound concentration 10.0 uM
[25] = target: T3, Muscarinic acetylcholine receptor M2 (Homo sapiens) (UniProt P08172); test: M2 (h) Eurofins-Cerep binding assay; parameters: ligand concentration 2 nM; conditions: filed as antagonist, Compound concentration 10.0 uM
T3 sequence (whole entry): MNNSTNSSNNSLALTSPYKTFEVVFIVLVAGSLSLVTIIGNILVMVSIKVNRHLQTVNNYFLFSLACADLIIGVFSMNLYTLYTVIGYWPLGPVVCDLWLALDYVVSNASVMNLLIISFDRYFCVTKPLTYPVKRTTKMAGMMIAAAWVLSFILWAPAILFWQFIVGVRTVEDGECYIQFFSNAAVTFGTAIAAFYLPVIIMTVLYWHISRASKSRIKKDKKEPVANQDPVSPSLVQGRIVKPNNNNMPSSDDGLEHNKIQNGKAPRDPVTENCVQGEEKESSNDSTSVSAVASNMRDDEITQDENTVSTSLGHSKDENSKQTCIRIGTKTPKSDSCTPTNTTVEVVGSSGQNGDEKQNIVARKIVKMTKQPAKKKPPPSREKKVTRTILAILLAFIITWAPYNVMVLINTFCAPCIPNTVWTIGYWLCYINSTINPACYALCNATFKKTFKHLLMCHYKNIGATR

[26] = target: Beta-2 adrenergic receptor (Homo sapiens) (UniProt P07550); test: Beta2 (h) Eurofins-Cerep binding assay; conditions: filed as antagonist, Compound concentration 10.0 uM
[27] = target: Neuropeptide Y receptor type 1 (Homo sapiens) (UniProt P25929); test: Y1 (h) Eurofins-Cerep binding assay; parameters: ligand concentration 0.025 nM; conditions: filed as agonist, Compound concentration 10.0 uM
[28] = target: Endothelin-1 receptor (Homo sapiens) (UniProt P25101); test: ETA (h) Eurofins-Cerep binding assay; parameters: ligand concentration 0.03 nM; conditions: filed as agonist, Compound concentration 10.0 uM
[29] = target: B2 bradykinin receptor (Homo sapiens) (UniProt P30411); test: B2 (h) Eurofins-Cerep binding assay; parameters: ligand concentration 0.3 nM; conditions: filed as agonist, Compound concentration 10.0 uM
[30] = target: Prostaglandin E2 receptor EP4 subtype (Homo sapiens) (UniProt P35408); test: EP4 (h) Eurofins-Cerep binding assay; parameters: ligand concentration 0.5 nM; conditions: filed as agonist, Compound concentration 10.0 uM
[31] = target: Beta-1 adrenergic receptor (Homo sapiens) (UniProt P08588); test: Beta1 (h) Eurofins-Cerep binding assay; parameters: ligand concentration 0.3 nM; conditions: filed as agonist, Compound concentration 10.0 uM
[32] = target: 5-hydroxytryptamine receptor 1E (Homo sapiens, UniProt P28566); test: GPCRScan assay: inhibition of 5-HT1E; parameters: radioligand conc. used [nm] 2.1 – 5.0, parental cells stable HEK
5-hydroxytryptamine receptor 1E, sequence (P28566 whole entry): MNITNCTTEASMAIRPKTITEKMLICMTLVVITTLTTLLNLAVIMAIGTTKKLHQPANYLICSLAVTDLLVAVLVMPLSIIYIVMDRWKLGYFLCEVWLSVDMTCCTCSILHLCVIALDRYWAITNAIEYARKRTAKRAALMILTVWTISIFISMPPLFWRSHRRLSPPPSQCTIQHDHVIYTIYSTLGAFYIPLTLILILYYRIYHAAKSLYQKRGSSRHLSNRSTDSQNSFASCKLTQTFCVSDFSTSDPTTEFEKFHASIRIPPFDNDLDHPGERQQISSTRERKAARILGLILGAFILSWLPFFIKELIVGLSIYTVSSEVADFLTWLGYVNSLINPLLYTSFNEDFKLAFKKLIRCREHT

Beta-1 adrenergic receptor (Homo sapiens), sequence (P08588 whole entry, looked up): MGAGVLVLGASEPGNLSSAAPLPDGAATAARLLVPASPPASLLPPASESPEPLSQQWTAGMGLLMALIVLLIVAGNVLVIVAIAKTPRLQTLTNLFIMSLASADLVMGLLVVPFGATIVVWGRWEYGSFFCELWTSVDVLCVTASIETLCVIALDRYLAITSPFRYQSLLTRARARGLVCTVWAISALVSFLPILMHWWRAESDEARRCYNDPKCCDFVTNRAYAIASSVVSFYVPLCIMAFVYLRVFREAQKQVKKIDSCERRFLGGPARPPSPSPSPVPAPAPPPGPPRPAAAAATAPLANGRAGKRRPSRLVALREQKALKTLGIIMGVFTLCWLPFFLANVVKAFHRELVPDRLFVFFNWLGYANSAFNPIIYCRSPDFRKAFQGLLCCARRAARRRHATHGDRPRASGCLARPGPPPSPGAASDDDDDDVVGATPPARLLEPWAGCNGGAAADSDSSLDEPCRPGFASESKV
T2 sequence (P41143 whole entry): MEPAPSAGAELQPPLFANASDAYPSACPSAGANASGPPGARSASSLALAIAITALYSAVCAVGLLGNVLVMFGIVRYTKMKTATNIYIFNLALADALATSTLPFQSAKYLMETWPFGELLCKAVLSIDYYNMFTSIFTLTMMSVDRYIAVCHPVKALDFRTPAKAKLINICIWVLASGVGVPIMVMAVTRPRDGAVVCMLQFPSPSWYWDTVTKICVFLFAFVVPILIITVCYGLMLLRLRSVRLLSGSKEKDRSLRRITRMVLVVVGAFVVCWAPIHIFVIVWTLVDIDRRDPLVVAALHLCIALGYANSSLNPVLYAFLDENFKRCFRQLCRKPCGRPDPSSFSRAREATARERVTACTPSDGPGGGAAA
5-hydroxytryptamine receptor 6, sequence (P50406 whole entry): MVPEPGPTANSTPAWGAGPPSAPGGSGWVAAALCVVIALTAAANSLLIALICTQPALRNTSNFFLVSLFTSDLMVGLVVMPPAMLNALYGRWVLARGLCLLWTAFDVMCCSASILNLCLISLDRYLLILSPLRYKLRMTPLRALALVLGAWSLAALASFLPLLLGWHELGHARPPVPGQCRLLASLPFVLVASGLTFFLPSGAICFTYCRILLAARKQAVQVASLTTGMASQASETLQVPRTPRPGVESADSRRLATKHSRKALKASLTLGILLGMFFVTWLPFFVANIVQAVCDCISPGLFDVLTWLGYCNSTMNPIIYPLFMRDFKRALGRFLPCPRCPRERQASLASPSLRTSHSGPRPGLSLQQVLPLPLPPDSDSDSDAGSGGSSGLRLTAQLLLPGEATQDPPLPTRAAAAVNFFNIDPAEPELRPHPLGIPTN
5-hydroxytryptamine receptor 2B (Homo sapiens), sequence (P41595 whole entry): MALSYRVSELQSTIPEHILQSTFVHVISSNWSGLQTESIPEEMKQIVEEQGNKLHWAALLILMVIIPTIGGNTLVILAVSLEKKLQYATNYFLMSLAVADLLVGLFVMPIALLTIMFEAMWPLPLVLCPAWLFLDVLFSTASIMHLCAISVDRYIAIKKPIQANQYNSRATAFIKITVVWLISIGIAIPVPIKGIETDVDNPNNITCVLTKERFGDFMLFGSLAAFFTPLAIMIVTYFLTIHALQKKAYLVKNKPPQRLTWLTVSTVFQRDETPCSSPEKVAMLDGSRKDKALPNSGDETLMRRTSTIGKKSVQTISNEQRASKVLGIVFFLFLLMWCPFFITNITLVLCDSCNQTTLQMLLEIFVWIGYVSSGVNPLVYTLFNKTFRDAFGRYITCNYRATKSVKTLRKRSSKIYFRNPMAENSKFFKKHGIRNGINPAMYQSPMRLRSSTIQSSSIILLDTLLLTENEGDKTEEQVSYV
Alpha-1D adrenergic receptor (Homo sapiens), sequence (P25100 whole entry): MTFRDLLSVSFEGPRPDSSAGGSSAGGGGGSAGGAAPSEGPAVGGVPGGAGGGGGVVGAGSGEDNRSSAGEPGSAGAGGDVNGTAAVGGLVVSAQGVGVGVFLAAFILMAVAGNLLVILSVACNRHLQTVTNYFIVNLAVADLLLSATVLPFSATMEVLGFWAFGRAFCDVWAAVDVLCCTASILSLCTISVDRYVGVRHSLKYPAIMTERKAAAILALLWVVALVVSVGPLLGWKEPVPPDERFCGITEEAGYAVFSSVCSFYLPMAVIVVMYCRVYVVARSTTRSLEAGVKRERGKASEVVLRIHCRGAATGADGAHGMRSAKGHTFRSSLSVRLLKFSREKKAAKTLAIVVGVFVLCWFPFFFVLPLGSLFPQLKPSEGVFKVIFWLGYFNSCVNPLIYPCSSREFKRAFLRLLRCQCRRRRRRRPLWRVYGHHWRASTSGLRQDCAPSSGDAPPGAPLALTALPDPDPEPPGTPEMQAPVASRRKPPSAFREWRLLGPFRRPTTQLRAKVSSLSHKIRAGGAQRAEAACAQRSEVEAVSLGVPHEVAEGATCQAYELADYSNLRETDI
Alpha-2A adrenergic receptor (Homo sapiens), sequence (P08913 whole entry): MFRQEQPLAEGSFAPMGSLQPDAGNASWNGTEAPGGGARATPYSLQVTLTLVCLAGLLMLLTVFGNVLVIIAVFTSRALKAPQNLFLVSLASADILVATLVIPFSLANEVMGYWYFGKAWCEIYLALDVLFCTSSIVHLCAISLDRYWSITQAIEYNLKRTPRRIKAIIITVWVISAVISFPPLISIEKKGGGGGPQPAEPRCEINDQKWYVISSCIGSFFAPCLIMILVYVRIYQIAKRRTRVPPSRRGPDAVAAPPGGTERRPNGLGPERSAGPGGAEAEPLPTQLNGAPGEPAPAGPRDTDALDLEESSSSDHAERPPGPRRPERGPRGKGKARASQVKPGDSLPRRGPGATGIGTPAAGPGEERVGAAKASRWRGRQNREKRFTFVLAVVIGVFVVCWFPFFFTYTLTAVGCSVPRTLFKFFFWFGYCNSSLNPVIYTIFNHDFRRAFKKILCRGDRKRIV
5-hydroxytryptamine receptor 7 (Homo sapiens), sequence (P34969 whole entry): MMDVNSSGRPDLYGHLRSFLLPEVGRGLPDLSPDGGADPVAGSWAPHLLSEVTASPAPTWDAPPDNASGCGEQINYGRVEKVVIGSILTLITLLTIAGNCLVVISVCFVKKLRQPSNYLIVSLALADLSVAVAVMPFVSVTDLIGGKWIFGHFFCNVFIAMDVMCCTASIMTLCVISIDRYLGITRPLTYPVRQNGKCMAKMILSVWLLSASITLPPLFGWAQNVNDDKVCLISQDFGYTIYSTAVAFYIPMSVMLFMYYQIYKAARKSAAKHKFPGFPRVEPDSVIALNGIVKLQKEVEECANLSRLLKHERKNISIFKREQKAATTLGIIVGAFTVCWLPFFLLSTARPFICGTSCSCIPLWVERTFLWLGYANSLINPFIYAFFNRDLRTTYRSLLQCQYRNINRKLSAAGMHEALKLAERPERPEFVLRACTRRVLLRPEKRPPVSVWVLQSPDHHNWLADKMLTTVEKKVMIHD
D(4) dopamine receptor (Homo sapiens), sequence (P21917 whole entry): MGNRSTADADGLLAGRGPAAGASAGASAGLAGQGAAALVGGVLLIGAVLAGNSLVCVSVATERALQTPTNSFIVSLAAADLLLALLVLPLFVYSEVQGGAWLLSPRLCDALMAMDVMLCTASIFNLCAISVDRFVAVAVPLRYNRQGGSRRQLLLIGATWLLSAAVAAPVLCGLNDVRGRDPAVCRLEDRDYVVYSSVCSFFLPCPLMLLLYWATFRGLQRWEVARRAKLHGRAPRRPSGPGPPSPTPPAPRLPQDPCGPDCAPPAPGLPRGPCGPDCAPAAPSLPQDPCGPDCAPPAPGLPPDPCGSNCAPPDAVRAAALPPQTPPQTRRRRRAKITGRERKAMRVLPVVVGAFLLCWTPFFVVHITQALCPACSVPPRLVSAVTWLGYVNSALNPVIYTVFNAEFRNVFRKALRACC
Histamine H1 receptor (Homo sapiens), sequence (P35367 whole entry): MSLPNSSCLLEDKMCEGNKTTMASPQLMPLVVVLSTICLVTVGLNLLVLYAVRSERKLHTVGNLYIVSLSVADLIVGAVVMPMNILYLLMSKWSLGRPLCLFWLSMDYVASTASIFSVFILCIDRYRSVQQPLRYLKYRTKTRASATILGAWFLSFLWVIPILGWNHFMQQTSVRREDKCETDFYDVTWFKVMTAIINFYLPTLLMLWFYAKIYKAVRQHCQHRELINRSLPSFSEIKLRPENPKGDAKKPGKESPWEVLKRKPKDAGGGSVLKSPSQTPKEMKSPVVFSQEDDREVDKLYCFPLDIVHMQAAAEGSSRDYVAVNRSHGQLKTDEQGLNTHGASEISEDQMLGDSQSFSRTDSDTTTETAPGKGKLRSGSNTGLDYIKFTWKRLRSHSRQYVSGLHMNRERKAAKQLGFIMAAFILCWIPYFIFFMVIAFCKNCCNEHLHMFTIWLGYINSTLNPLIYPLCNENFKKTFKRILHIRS
Beta-2 adrenergic receptor (Homo sapiens), sequence (P07550 whole entry, looked up): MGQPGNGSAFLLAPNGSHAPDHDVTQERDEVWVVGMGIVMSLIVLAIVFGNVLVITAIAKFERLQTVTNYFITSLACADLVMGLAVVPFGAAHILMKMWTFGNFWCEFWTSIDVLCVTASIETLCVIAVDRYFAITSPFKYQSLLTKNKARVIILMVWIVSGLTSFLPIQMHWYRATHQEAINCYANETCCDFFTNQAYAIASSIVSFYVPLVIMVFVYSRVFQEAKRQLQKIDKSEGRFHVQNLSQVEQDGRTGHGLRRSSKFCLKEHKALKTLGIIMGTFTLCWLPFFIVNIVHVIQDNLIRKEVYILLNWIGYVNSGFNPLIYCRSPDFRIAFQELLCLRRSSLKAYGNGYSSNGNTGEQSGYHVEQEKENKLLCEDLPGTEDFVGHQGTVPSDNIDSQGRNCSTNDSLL

Work on COc1cc(C(=O)O)ncc1C#Cc1ccccc1NS(=O)(=O)c1cccc2c(N(C)C)ccnc12 [MSC-0516] yielded an inhibition [1] of 12.2%, an inhibition [2] of 34.9% and an inhibition [3] of 1.48%. The inhibition [4] was -1.47%, the inhibition (Rattus norvegicus) was 60.4% and the inhibition [5] was 25%. The IC50 [6] was > 4 µM (not active), the IC50 [7] was 506 nM (not active) and the inhibition [8] was -2.53%. For the same compound, the inhibition [9] was 44.4%, the inhibition [10] was 16.7% and the Ki ([11]; read-out: Ki) was 1520 nM. The Ki ([11]; read-out: pKi (converted)) was 1450 nM, the Ki [12] was 734 nM and the pKi [12] was 6.14. For the same compound, the inhibition [13] was 84.3%, the inhibition [14] was 11% and the inhibition [15] was 4.65%. For the same compound, the inhibition [16] was -5.83%.

Compound CCOc1ccc(S(=O)(=O)Nc2ccc(Cl)cc2C#Cc2cnc(C(=O)O)cc2OC)c2ncccc12 [MSC-4381] has a % Inhibition of Control Specific Binding (Mean n=2) [17] of 15.3%, an inhibition [2] of 8.83% and a % Inhibition of Control Specific Binding (Mean n=2) [18] of 59.9%. The % Inhibition of Control Specific Binding (Mean n=2) [19] was 28.9%, the inhibition [3] was 20.8% and the % Inhibition of Control Specific Binding (Mean n=2) [20] was 7.8%. It also gave an inhibition [4] of 21.7%, an inhibition (Rattus norvegicus) of 45% and an inhibition [5] of 16.3%. For the same compound, the IC50 [6] was 0.638 µM, the % Inhibition of Control Specific Binding (Mean n=2) [21] was 11.7% and the % Inhibition of Control Specific Binding (Mean n=2) [22] was -11.3%. It also gave a % Inhibition of Control Specific Binding (Mean n=2) [23] of -3.2%, a % Inhibition of Control Specific Binding (Mean n=2) [24] of -21.6% and an inhibition [8] of 2.02%. The inhibition [9] was 26%, the % Inhibition of Control Specific Binding (Mean n=2) [25] was 35.8% and the % Inhibition of Control Specific Binding (Mean n=2) [26] was -3.7%. The inhibition [10] was 18.8%, the % Inhibition of Control Specific Binding (Mean n=2) [27] was -7.5% and the % Inhibition of Control Specific Binding (Mean n=2) [28] was -0.2%. For the same compound, the % Inhibition of Control Specific Binding (Mean n=2) [29] was -1.1%, the % Inhibition of Control Specific Binding (Mean n=2) [30] was 47.2% and the inhibition [13] was -8.88%. For the same compound, the inhibition [15] was 4.2%, the inhibition [16] was 4.24% and the % Inhibition of Control Specific Binding (Mean n=2) [31] was 17.4%. For the same compound, the Ki [32] was over 10 µM and the pKi [32] was under 5.
